# Experimental data published in patent US20210047278A1, “E3 UBIQUITIN LIGASE AGONISTS, PHARMACEUTICAL COMPOSITIONS INCLUDING THE E3 UBIQUITIN LIGASE AGONISTS, RELATED METHODS OF USE” (FRED HUTCHINSON CANCER RESEARCH CENTER, priority 2018, published 2021).
# Like-named read-outs stand apart in the source and are kept apart here.
# Legend:
# Type in all cases: binding
# FBW7^ARG+pCycE = biological target: T1, FBW7^ARG+pCycE (Homo sapiens, UniProt Q969H0, R505L); test: FBW7^ARG-cyclin E agonist ALPHAscreen (primary PRUN, confirmation CRUN1, dose-response DRUN); settings: for EC50 / Emax: DRUN dose-response; for Emax: relative to WT-FBW7+pCycE, read-out: FBW7 ACT Averaged Max % Response
# T1 construct: GST (TEV site and flexible linker) (N, cleaved yes); made in house; host or cells: SF9 insect cells (baculovirus)
# T1 sequence (Q969H0 64-707 R505L): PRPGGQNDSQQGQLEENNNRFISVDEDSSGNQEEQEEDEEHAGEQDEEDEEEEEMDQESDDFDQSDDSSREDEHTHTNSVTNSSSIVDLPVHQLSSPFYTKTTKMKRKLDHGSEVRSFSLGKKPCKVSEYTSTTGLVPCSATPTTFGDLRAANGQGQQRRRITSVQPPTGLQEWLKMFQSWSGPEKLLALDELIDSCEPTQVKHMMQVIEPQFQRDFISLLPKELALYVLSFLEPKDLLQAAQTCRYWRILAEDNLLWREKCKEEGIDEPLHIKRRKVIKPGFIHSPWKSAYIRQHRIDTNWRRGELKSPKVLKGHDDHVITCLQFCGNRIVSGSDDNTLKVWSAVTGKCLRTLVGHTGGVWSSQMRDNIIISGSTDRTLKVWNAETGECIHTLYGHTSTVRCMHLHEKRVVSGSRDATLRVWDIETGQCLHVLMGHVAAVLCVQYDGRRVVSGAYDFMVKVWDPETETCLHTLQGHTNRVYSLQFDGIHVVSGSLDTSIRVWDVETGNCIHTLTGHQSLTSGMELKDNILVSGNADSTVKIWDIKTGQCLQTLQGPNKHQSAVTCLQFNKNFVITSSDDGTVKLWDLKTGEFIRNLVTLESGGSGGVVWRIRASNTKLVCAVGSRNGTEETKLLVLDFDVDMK
# T1 sequence (P63208 2-163 partner): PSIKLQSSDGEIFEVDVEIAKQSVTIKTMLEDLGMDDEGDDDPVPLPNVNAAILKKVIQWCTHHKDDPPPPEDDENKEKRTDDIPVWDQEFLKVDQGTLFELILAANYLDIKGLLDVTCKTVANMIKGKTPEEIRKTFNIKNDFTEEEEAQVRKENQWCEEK
# How it was run: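 ALPHAscreen agonist assay: His-tagged FBW7 R505L on Ni-chelate acceptor beads (25 nM FBW7, 25 nM biotinylated phospho-cyclin E peptide, 10 µg/ml beads), streptavidin donor beads, ALPHA signal read. Primary and confirmation runs at 26.1 μM; dose-response as 10-point 3-fold series to ~87 μM, in triplicate; activation relative to WT-FBW7+pCycE.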
# FBW7^ARG (RLFBW7) alone = biological target: T2, FBW7^ARG (RLFBW7) alone (Homo sapiens, UniProt Q969H0, R505L); test: Counterscreen 1 ALPHAscreen with FBW7^ARG alone (CSRUN1/DCSRUN1); settings: dose-response counterscreen; for Emax: read-out: RLFBW7 ACT DCSRUN1 Averaged Max % Response
# T2 construct: GST (TEV site and flexible linker) (N, cleaved yes); made in house; host or cells: SF9 insect cells (baculovirus)
# T2 sequence (Q969H0 64-707 R505L): as the sequence (Q969H0 64-707 R505L) above
# T2 sequence (P63208 2-163 partner): as the sequence (P63208 2-163 partner) above
# How it was run: (§1)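 ALPHAscreen counterscreens, read on ENVISION, omitting either FBW7^ARG or the phosphorylated cyclin E peptide to flag general ALPHAscreen agonists. Compounds tested in triplicate as 10-point 3-fold dilutions up to approximately 87 μM. Activation expressed relative to WT-FBW7+pCycE, with 10% set as positive.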
# pCycE alone = test: Counterscreen 2 ALPHAscreen with cyclin E phosphopeptide alone (CSRUN2/DCSRUN2); settings: for CyCEP ACT DCSRUN2 Averaged Max % Response: activation relative to WT-FBW7+pCycE, averaged maximum; for EC50: dose-response, triplicate, 10 point 3-fold dilutional series, read-out: CyCEP ACT DCSRUN2 Final EC50
# How it was run: as §1
# [1] = raw curve fit, read-out: FBW7 ACT EC50 Curve Fit Raw, Molar
# [2] = triplicate, 10 point 3-fold dilution, max approx. 87 μM, read-out: FBW7 ACT Final EC50, Molar
# [3] = confirmation assay, triplicate, single concentration 26.1 μM, read-out: FBW7 ACT CRUN1 Avg % Response and Stdev
# [4] = primary screen, 1536-well, 26.1 μM, FBW7^ARG + pCycE degron peptide, high control wt-FBW7+pCycE, read-out: FBW7 ACT PRUN % Response
# [5] = raw curve fit, read-out: RLFBW7 ACT DCSRUN1 EC50 Curve Fit Raw
# [6] = read-out: RLFBW7 ACT DCSRUN1 Final EC50
SMILES,EC50 (FBW7^ARG+pCycE; [1]) [µM],Emax (FBW7^ARG+pCycE) [%],EC50 (FBW7^ARG+pCycE; [2]) [µM],activation at 26.1 µM (FBW7^ARG+pCycE; [3]) [%],activation at 26.1 µM (FBW7^ARG+pCycE; [4]) [%],EC50 (FBW7^ARG (RLFBW7) alone; [5]) [µM],Emax (FBW7^ARG (RLFBW7) alone) [%],EC50 (FBW7^ARG (RLFBW7) alone; [6]) [µM],CyCEP ACT DCSRUN2 Averaged Max % Response (pCycE alone) [%],EC50 (pCycE alone) [µM]
COc1cc(-c2ccnc(N)n2)ccc1NC(=O)[C@H]1COc2ccccc2O1.O=C(O)C(F)(F)F [SR-00000003239-1],18.6,19.3,> 65.3,2.52 ± 0.29,2.52,12.8,0.69,> 65.3,0.15,> 65.3
Fc1ccccc1CSc1nnnn1-c1ccccc1F [SR-01000432842-1],0.0082,8.63,> 72.9,5.32 ± 2.7,2.34,0.0102,1.65,> 72.9,2.47,> 72.9
CC1=C(C(=O)OCc2ccccc2)C(c2cn(-c3ccccc3)nc2-c2ccc(F)cc2)C(C(=O)OCc2ccccc2)=C(C)N1 [SR-01000425637-1],0.0034,8.34,> 34.2,4.66 ± 1.07,1.93,,1.54,> 34.2,2.59,> 34.2
CN(C)CC[S+]([O-])c1cc(-c2cn[nH]c2)ccc1NC(=O)[C@@H]1Cc2cc(F)ccc2CN1.O=C(O)C(F)(F)F (some centres unmarked) [SR-00000005398-1],9.2,12.9,> 65.3,2.28 ± 0.37,1.91,0.0925,0.77,> 65.3,0.21,> 65.3
O=C(Nc1ccc2c(c1)OCO2)N1CCC(c2nnc(C3CC3)s2)CC1 [SR-01000922885-1],31.9,17.5,> 65.3,2.33 ± 0.59,2.62,24.5,0.2,> 65.3,0.08,> 65.3
CCSCCOC(=O)C1=C(C)NC2=C(C(=O)CC(c3ccccc3)C2)C1c1ccc(OC)cc1OC (centres unmarked) [SR-01000425645-1],0.0036,7.92,> 41.4,5.16 ± 0.69,2.28,0.0044,0.91,> 41.4,2.61,> 41.4
Cn1nc(CC(=O)Nc2ccc(F)c(Cl)c2)c2ccccc2c1=O [SR-01000589827-1],0.698,7.32,> 85,2.48 ± 0.45,1.93,,-0.247,> 85,0.04,> 85
CCOC(=O)C1=CN(Cc2ccc(OC)cc2)C=C(C(=O)OCC)C1c1ccccc1OCc1ccccc1 [SR-01000587933-1],,12,,2.81 ± 0.04,2.16,,3.64,,2.45,> 44.2
